Structures are written as SMILES. pIC50: −log10 of the molar value. Where only a bound is given, the exact number is not on record here.

In patent US8389526B2, “3-heteroarylmethyl-imidazo[1,2-b]pyridazin-6-yl derivatives” (Novartis AG, priority 2009, dated 2013) one finds IC50 data, which are given here for 16 molecules.

In experiment [1] the target is T1, c-Met receptor tyrosine kinase, GST-c-Met(969-1390) (Homo sapiens, UniProt P08581).
T1 construct: made in house
Put plainly: EPK c-Met profiling assay (LanthaScreen TR-FRET kinase assay). The class given is biochemical. Conditions: 2 μM ATP, 0.3 nM enzyme, 60 minutes at room temperature. Here is the method:
A number of compounds of the present invention were assayed in an antibody based kinase phosphorylation assay as follows.
Epk c-Met Profiling Assay:
The EPK kinase assay for c-Met receptor tyrosine kinase was developed, using the purified recombinant GST-fusion protein, containing the cytoplasmic domain of the enzyme. GST-c-Met(969-1390) was purified by affinity chromatography.
The kinase assay is based on the LanthaScreen™ technology. LanthaScreen™ is the detection of Time-Resolved Fluorescence Resonance Energy Transfer (TR-FRET) using lanthanide chelates to measure interactions between various binding partners. In a TR-FRET kinase assay, a long-lifetime lanthanide donor species is conjugated to an antibody that specifically binds to a phosphorylated product of a kinase reaction that is labeled with a suitable acceptor fluorophore. This antibody-mediated interaction brings the lanthanide donor and the acceptor into proximity such that resonance energy transfer can take place, resulting in a detectible increase in the FRET signal.
The kinase reactions were performed in 384 well microtiter plates in a total reaction volume of 9.05 μL. The assay plates were prepared with 0.05 μL per well of test compound in the appropriate test concentration, as described under “preparation of compound dilutions”. The reactions were started by combining 4.5 μL of ATP solution with 4.5 μL of enzyme-substrate mix (consisting of kinase and substrate). The final concentrations in the kinase reactions were 35 mM Tris/HCl, 1 mM DTT, 0.025% Tween20, 10 μM sodium orthovanadate, 0.25% BSA, 0.6% DMSO, 10 mM MgCl2, 3 mM MnCl2, 2 μM ATP, 50 nM Fluorescein-PolyEAY, and 0.3 nM enzyme.
The reactions were incubated for 60 minutes at room temperature and stopped by adding 4.5 μL of stop buffer (50 mM EDTA, 0.04% NP40, 20 mM Tris/HCl).
Subsequently 4.5 μL of detection mix (50 mM Tris/HCl, 2 mM DTT, 0.05% Tween20, 20 μM sodium orthovanadate, 1% BSA, 1.72 μg/mL Tb-PY20 antibody) were added to the stopped reactions. After 30 minutes incubation at room temperature, the plates were measured in a BMG Pherastar fluorescence reader. The effect of compound on the enzymatic activity was in all assays obtained from the linear progress curves and determined from one reading (end point measurement).
Preparation of Compound Dilutions
Test compounds were dissolved in DMSO (10 mM) and transferred into 1.4 mL flat bottom or V-shaped Matrix tubes carrying a unique 2D matrix. The stock solutions were stored at −20° C. if not used immediately. For the test procedure the vials were defrosted and identified by a scanner whereby a working sheet was generated that guided the subsequent working steps.
Compound dilutions were made in 96 well plates. This format enabled the assay of maximally 40 individual test compounds at 8 concentrations (single points) including 4 reference compounds. The dilution protocol included the production of “pre-dilution plates”, “master plates” and “assay plates”.
Pre-dilution plates: 96 polypropylene well plates were used as pre-dilution plates. A total of 4 pre-dilution plates were prepared including 10 test compounds each on the plate positions A1-A10, one standard compound at A11 and one DMSO control at A12. All dilution steps were done on a HamiltonSTAR robot.
Master plates: 100 μL of individual compound dilutions including standard compound and controls of the 4 “pre-dilution plates” were transferred into a 384 “master plate” including the following concentrations 1′820, 564, 182, 54.6, 18.2, 5.46, 1.82 and 0.546 μM, respectively in 90% of DMSO.
Assay plates: Identical “assay plates” were then prepared by pipetting 50 nL each of compound dilutions of the “master plates” into 384-well “assay plates” by means of a HummingBird 384-channel dispenser. These plates were used directly for the assay which was performed in a total volume of 9.05 μL. […]

Experiment [2] relates to MET-amplified gastric cancer cell line GTL-16. Kind of experiment: GTL-16 proliferation assay (MTS). It counts as cell-based. To be noted: Homo sapiens, GTL-16 cells, 72 h incubation. Here is the method: (§1) C-Met Dependent Cellular Assays
(§2) A number of compounds of the present invention were assayed in a c-Met dependent proliferation and phosphorylation assay as follows.
GTL-16 proliferation assay: the MET-amplified gastric cancer cell line GTL-16 was grown under standard cell culture conditions in DMEM [Dulbecco's Modified Eagle Medium] (high glucose) supplemented with 10% heat-inactivated fetal calf serum and 2 mM L-glutamine. For proliferation assays, cells were seeded at 3000 per well in 96-well-plates. 24 h later, a 10-point dilution series of each compound (3-fold steps, ranging from […]) was prepared in DMSO. Compound were then diluted 1000-fold in growth media in two steps and added to cells in triplicates, resulting in a final volume of […] per well and maximal final compound concentrations of […]. A DMSO-only control was included. Cells were incubated for 72 h and the amount of viable cells was then measured by adding […] of MTS reagent (CellTiter 96® AQueous Non-Radioactive Cell Proliferation Assay, Promega), further incubation for 30′, and reading the optical density at 490 nm.

The target in the next experiment is T2, c-Met (Homo sapiens, UniProt P08581).
T2 construct: adapted to measure the phosphorylation of endogenous cellular proteins in cell lysates; endogenous in cells; host or cells: GTL-16
T2 sequence (P08581 25-1390): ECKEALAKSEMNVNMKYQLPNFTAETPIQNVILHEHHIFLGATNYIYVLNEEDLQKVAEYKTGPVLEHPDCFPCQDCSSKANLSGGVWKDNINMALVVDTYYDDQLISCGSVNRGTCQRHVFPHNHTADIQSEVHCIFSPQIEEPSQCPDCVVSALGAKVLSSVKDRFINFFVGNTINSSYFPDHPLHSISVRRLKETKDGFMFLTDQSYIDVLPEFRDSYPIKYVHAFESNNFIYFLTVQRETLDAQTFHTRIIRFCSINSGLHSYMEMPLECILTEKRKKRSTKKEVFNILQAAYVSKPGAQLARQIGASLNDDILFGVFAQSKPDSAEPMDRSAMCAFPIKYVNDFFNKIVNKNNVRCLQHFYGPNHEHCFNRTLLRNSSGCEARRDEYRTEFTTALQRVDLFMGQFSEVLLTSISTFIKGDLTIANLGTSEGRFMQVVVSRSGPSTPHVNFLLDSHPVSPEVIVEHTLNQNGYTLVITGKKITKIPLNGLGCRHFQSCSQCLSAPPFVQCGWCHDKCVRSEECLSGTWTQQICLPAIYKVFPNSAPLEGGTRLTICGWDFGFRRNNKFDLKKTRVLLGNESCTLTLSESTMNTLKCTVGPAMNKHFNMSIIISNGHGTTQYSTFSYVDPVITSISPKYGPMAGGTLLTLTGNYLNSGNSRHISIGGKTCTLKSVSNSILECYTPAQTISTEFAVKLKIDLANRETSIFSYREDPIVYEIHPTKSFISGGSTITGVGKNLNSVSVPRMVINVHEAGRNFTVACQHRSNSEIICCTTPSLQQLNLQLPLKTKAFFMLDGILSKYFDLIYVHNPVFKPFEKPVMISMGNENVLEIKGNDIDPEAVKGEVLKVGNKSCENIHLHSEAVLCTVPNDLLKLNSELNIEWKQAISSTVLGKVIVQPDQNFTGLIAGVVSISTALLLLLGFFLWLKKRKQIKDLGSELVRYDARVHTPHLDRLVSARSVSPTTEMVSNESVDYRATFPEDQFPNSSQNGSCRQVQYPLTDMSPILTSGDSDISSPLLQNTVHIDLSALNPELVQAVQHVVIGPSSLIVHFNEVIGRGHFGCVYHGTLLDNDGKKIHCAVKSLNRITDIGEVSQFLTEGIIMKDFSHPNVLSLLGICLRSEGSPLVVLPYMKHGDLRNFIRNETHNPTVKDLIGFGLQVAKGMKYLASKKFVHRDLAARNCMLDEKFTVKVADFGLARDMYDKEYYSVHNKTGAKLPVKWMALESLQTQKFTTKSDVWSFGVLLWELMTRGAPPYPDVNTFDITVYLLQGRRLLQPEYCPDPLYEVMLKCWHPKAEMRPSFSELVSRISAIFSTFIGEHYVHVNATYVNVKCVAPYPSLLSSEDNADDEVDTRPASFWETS
Put plainly: GTL-16 c-Met autophosphorylation measured by AlphaScreen detection. It counts as cell-based. To be noted: GTL-16 cells, 1 h incubation, AlphaScreen p-c-Met; read-out: GTL-16 IC50 c-Met phosphorylation. Here is the method: as §1, §2
GTL-16 c-Met autophosphorylation measured by AlphaScreen® detection: the human MET-amplified gastric cancer cells GTL-16 were plated in 384-well plates at a density of 10′000 cells in 20 ul complete growth medium (DMEM high glucose supplemented with 10% (v/v) heat inactivated fetal calf serum and of 1 mM sodium pyruvate) and were incubated at […]/5% CO2/95% humidity for 20 h. The cells were washed and the 30 ul assay buffer (DMEM high glucose, 1 mM sodium pyruvate, 0.1% bovine serum albumine) was added. Compounds were diluted in 384-well compound plates to obtain 8-point serial dilutions for 40 test compounds in 90% DMSO, as well as a reference compound plus 16 high- and 16 low (inhibited) controls. These compound plates were prediluted 1:200 in assay buffer into a compound predilution plate and 10 ul of prediluted compound solution were transferred to the cell plate using a 384-well pipettor, resulting in a final DMSO concentration of 0.11%. Cells were incubated for 1 h at […]/5% CO2/95% humidity. The supernatant was removed, the cells were lysed in 25 ul of RIPA [radio immuno precipitation assay] lysis buffer supplemented with 2 mM sodium vanadate and a protease inhibitor cocktail, and cell plates were stored at −80° C.
For detection of p-c-Met, an AlphaScreen®-based assay was used. AlphaScreen® (Amplified Luminescent Proximity Homogeneous Assay, ALPHA, Perkin Elmer, U.S.A) is a non-radioactive bead-based proximity assay technology to study biomolecular interactions in a homogenous microtiter plate format. This technique has been adapted to measure the phosphorylation of endogenous cellular proteins in cell lysates by the use of specific antibody pairs against the total protein and a phospho-specific epitope. 5 ul of cell lysate was transferred to 384-well low volume Proxiplates for detection using a 384-well pipettor. First, 5 ul of a premix of an anti-c-Met antibody (0.25 ug/ml f.c.), a biotinylated PY20 antibody (phosphotyrosine antibody, 0.05 ug/ml f.c.) and AlphaScreen® Protein A-coupled acceptor beads (10 ug/ml f.c.) in RIPA buffer supplemented with 0.25% (v/w) TOP BLOCK, 2 mM sodium vanadate, and a protease inhibitor cocktail and was added, the plate was sealed, and incubated on a plate shaker for 2 hours at room temperature. Second, 2 ul of dilution buffer containing AlphaScreen® Streptavidin-coated donor beads (10 ug/ml f.c.) in RIPA buffer was added, and the plate was incubated on plate shaker as above for a further 2 hours. The plate was read on an AlphaScreen® compatible plate reader, using standard AlphaScreen® settings.
A general note: Bead proximity is the source of the signal in Alpha formats.

T1 sequence (P08581 969-1390): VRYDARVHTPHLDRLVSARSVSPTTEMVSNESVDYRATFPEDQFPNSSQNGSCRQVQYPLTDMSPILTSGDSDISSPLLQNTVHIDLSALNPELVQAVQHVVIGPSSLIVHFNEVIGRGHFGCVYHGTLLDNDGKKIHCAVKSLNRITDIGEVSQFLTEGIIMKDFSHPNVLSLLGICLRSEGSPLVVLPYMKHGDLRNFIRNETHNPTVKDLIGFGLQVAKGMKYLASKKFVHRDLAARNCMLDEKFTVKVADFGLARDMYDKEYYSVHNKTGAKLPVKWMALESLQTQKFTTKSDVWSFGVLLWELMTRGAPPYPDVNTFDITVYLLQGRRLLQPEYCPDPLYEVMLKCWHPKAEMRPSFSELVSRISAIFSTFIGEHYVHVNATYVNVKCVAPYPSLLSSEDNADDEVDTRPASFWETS

For the molecule `CN1CCN(c2ccc3ncc(Cc4cc5cccnc5cc4F)n3n2)CC1=O` [Example 37, 4-[3-(7-Fluoro-quinolin-6-ylmethyl)-imidazo[1,2-b]pyridazin-6-yl]-1-methyl-piperazin-2-one], the pIC50 (usually the IC50 on a negative log10 scale, so that one unit is a factor of ten) in experiment [1] was 7.24.

Regarding `CC1C(=O)NCCN1c1ccc2ncc([C@@H](C)c3c(F)cc4ncccc4c3F)n2n1` (mixture of isomers) [Example 58, (rac)-4-{3-[(S)-1-(5,7-Difluoro-quinolin-6-yl)-ethyl]-imidazo[1,2-b]pyridazin-6-yl}-3-methyl-piperazin-2-one], the results for the pIC50 (in experiment [2]; at c-Met; in experiment [1]) were 8.15, 8.43 and 8.57, respectively. For `Cn1ncc2c(F)c(Cc3cnc4ccc(N5CCNC(=O)C5)nn34)c(F)cc21` [Example 54, 4-[3-(4,6-Difluoro-1-methyl-1H-indazol-5-ylmethyl)-imidazo[1,2-b]pyridazin-6-yl]-piperazin-2-one], the pIC50 is 7.44 in experiment [2], greater than 8.52 on c-Met and 7.70 in experiment [1]. In the same order, the values of `CC(c1c(F)cc2ncccc2c1F)c1cnc2ccc(N3CCN(C)C(=O)C3C)nn12` (racemic) [Example 21, (rac)-4-{3-[1-(5,7-Difluoro-quinolin-6-yl)-ethyl]-imidazo[1,2-b]pyridazin-6-yl}-1,3-dimethylpiperazin-2-one] are 8.05, greater than 8.52 and 7.72. As to `CC(c1c(F)cc2ncccc2c1F)c1cnc2ccc(N3CCNC(=O)C3C)nn12` (racemic) [Example 18, (rac)-4-{3-[1-(5,7-Difluoro-quinolin-6-yl)-ethyl]-imidazo[1,2-b]pyridazin-6-yl}-3-methyl-piperazin-2-one], the pIC50 in experiment [2] was 8.04; in experiment [1], 8.08. Regarding `CC(c1c(F)cc2ncccc2c1F)c1cnc2ccc(N3CCNCC3)nn12` (racemic) [Example 6, (rac)-5,7-Difluoro-6-[1-(6-piperazin-1-yl-imidazo[1,2-b]pyridazin-3-yl)-ethyl]-quinoline], the results for the pIC50 (in experiment [2]; at c-Met; in experiment [1]) were 7.94, 8.52 and 8.35, respectively. As for `CC(c1c(F)cc2c(cnn2C)c1F)c1cnc2ccc(N3CCNC(=O)C3)nn12` (racemic) [Example 51], the pIC50 in experiment [2] was 7.80; at c-Met, 8.10; in experiment [1] it was 7.66. `O=C1CN(c2ccc3ncc(Cc4cc5cccnc5cc4F)n3n2)CCN1` [Example 38, 4-[3-(7-Fluoro-quinolin-6-ylmethyl)-imidazo[1,2-b]pyridazin-6-yl]-piperazin-2-one] showed a pIC50 in experiment [1] of 7.51. As for `CC(c1c(F)cc2ncccc2c1F)c1cnc2ccc(N3CCN(C)C(=O)C3)nn12` (racemic) [Example 1, (rac)-4-{3-[1-(5,7-Difluoro-quinolin-6-yl)-ethyl]-imidazo[1,2-b]pyridazin-6-yl}-1-methyl-piperazin-2-one], the pIC50 in experiment [2] was 8.04; on c-Met, greater than 8.52; in experiment [1], 8.07. On to `CC(=O)N1CCN(c2ccc3ncc(Cc4c(F)cc5c(cnn5C)c4F)n3n2)CC1` [Example 55, 1-(4-(3-((4,6-difluoro-1-methyl-1H-indazol-5-yl)methyl)imidazo[1,2-b]pyridazin-6-yl)piperazin-1-yl)ethanone], for which the pIC50 in experiment [1] was 7.54.

In experiment [1], `C[C@H](c1c(F)cc2ncccc2c1F)c1cnc2ccc(N3CCNC(=O)C3)nn12` (single isomer, unassigned) [Example 4] had a pIC50 of 6.17. Turning to `CC(=O)N1CCN(c2ccc3ncc(Cc4cc5cccnc5cc4F)n3n2)CC1` [Example 39, 1-{4-[3-(7-Fluoro-quinolin-6-ylmethyl)-imidazo[1,2-b]pyridazin-6-yl]-piperazin-1-yl}-ethanone], in experiment [1], the pIC50 is 7.08.

`CN1CCN(c2ccc3ncc(Cc4ccc5ncccc5c4F)n3n2)CC1=O` [Example 43, 4-[3-(5-Fluoro-quinolin-6-ylmethyl)-imidazo[1,2-b]pyridazin-6-yl]-1-methyl-piperazin-2-one] gave a negative logarithm of the IC50 (pIC50) in experiment [1] of 7.08. Consider `CC(c1c(F)cc2ncccc2c1F)c1cnc2ccc(N3CCN(C=O)CC3)nn12` (racemic) [Example 12, (rac)-4-{3-[1-(5,7-Difluoro-quinolin-6-yl)-ethyl]-imidazo[1,2-b]pyridazin-6-yl}-piperazine-1-carbaldehyde], for which the pIC50 in experiment [1] was 8.10. As to `CC(=O)N1CCN(c2ccc3ncc(Cc4ccc5ncccc5c4F)n3n2)CC1` [Example 45, 1-{4-[3-(5-Fluoro-quinolin-6-ylmethyl)-imidazo[1,2-b]pyridazin-6-yl]-piperazin-1-yl}-ethanone], the pIC50 in experiment [1] is 6.77.

The molecule `COC(=O)N1CCN(c2ccc3ncc(C(C)c4c(F)cc5ncccc5c4F)n3n2)CC1` (racemic) [Example 14, (rac)-4-{3-[1-(5,7-Difluoro-quinolin-6-yl)-ethyl]-imidazo[1,2-b]pyridazin-6-yl}-piperazine-1-carboxylic acid methyl ester] showed a pIC50 in experiment [1] of 8.10.
